Tests used:
WEE1 = target: T1, WEE1 (Homo sapiens, UniProt P30291+Q96SW2); experiment: Western-blot assay of substrate protein degradation in hPBMCs, WEE1; type: cell-based; conditions: 24 hours of compound treatment
T1 construct: endogenous in cells; host or cells: hPBMCs (Milecell Biotechnologies)

IKZF1 = target: T2, IKZF1 (Homo sapiens, UniProt Q13422+Q96SW2); experiment: Western-blot assay of substrate protein degradation in hPBMCs, IKZF1; type: cell-based; conditions: 24 hours of compound treatment
T2 construct: endogenous in cells; host or cells: hPBMCs (Milecell Biotechnologies)
T2 sequence (Q13422 whole entry): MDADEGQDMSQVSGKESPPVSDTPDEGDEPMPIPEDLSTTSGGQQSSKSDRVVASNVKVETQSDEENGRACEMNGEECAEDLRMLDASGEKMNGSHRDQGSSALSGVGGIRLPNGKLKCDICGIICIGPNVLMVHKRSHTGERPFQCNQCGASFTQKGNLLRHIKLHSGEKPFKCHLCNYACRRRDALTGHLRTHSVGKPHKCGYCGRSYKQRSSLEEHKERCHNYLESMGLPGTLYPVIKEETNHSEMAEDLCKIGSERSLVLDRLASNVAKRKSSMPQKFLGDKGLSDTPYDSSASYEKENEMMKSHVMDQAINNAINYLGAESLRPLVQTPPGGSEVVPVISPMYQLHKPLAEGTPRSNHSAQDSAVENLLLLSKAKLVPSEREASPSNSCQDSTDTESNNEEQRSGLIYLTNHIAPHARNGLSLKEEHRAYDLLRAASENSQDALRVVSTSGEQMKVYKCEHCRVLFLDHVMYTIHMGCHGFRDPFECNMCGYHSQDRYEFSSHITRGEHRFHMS
T2 sequence (Q96SW2 whole entry): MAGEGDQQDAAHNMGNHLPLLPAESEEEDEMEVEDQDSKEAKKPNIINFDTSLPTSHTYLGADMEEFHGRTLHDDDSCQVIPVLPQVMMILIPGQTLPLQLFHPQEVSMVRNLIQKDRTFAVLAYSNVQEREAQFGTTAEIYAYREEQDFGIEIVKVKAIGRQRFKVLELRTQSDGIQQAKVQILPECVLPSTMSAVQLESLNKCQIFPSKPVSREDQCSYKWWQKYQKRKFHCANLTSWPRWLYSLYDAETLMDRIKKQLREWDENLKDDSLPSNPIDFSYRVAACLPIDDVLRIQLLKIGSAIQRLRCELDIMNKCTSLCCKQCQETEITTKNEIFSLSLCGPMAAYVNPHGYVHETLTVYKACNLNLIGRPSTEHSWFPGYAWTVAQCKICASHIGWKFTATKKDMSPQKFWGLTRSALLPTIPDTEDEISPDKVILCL
T2 sequence (Q16531 whole entry partner): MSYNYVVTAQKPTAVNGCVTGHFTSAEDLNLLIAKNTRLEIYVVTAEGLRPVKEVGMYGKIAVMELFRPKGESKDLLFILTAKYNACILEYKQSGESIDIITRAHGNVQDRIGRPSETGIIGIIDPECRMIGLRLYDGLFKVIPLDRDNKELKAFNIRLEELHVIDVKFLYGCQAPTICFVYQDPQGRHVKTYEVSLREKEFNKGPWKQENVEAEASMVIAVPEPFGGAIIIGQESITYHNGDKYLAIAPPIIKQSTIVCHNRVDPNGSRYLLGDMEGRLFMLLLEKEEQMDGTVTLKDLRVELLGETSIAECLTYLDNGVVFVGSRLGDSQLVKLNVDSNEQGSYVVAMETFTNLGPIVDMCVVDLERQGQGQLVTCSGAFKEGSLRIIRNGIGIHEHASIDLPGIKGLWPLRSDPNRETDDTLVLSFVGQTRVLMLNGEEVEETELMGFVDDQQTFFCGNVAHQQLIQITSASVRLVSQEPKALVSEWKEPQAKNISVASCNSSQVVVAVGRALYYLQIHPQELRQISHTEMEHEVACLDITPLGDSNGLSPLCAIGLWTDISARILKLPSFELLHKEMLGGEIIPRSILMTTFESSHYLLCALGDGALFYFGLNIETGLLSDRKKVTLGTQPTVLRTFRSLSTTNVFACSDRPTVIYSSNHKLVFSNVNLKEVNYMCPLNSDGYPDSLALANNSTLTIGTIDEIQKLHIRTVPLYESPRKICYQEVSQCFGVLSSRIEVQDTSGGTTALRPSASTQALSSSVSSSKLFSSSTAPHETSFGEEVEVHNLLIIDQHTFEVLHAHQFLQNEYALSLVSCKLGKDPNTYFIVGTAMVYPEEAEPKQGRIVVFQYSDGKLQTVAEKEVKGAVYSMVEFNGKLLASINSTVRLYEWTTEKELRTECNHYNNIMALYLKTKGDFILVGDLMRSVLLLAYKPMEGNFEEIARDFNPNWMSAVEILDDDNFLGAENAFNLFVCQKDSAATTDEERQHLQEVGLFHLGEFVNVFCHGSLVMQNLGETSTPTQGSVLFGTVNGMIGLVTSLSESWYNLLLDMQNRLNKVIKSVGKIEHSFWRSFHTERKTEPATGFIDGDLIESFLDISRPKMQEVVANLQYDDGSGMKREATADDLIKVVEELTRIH

IKZF2 = target: T3, IKZF2 (Homo sapiens, UniProt Q96SW2+Q9UKS7); experiment: Western-blot assay of substrate protein degradation in hPBMCs, IKZF2; type: cell-based; conditions: 24 hours of compound treatment
T3 construct: endogenous in cells; host or cells: hPBMCs (Milecell Biotechnologies)
T3 sequence (Q9UKS7 whole entry): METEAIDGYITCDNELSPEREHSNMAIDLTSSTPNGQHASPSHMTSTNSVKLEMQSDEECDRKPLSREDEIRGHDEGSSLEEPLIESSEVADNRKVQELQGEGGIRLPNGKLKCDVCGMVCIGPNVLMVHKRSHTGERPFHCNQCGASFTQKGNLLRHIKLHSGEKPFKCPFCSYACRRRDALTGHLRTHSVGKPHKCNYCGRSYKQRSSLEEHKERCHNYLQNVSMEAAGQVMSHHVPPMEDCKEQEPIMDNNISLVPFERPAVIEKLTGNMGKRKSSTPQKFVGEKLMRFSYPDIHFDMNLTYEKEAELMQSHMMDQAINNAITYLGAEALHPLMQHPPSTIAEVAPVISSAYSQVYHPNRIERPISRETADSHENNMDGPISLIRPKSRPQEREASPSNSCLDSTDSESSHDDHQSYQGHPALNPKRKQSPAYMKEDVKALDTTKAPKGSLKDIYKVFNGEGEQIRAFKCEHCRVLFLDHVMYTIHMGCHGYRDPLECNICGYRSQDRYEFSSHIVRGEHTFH
T3 sequence (Q96SW2 whole entry): as the sequence (Q96SW2 whole entry) above
T3 sequence (Q16531 whole entry partner): as the sequence (Q16531 whole entry partner) above

IKZF3 = target: T4, IKZF3 (Homo sapiens, UniProt Q96SW2+Q9UKT9); experiment: Western-blot assay of substrate protein degradation in hPBMCs, IKZF3; type: cell-based; conditions: 24 hours of compound treatment
T4 construct: endogenous in cells; host or cells: hPBMCs (Milecell Biotechnologies)
T4 sequence (Q9UKT9 whole entry): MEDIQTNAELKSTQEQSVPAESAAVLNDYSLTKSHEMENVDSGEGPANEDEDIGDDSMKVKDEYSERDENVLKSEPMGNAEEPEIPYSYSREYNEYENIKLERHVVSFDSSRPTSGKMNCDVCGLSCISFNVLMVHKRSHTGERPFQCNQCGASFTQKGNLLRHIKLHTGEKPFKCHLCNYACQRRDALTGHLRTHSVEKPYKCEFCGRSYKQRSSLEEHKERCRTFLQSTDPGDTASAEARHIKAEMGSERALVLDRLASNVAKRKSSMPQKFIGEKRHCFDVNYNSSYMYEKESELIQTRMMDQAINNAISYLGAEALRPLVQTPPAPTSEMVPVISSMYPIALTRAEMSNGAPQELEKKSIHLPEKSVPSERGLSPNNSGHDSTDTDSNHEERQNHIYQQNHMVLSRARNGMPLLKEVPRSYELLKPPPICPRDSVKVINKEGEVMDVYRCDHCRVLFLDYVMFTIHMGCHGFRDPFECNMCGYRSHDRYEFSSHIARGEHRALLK
T4 sequence (Q96SW2 whole entry): as the sequence (Q96SW2 whole entry) above
T4 sequence (Q16531 whole entry partner): as the sequence (Q16531 whole entry partner) above

CK1α = target: T5, CK1α (Homo sapiens, UniProt P48729+Q96SW2); experiment: Western-blot assay of substrate protein degradation in hPBMCs, CK1α; type: cell-based; conditions: 24 hours of compound treatment
T5 construct: endogenous in cells; host or cells: hPBMCs (Milecell Biotechnologies)
T5 sequence (P48729 whole entry): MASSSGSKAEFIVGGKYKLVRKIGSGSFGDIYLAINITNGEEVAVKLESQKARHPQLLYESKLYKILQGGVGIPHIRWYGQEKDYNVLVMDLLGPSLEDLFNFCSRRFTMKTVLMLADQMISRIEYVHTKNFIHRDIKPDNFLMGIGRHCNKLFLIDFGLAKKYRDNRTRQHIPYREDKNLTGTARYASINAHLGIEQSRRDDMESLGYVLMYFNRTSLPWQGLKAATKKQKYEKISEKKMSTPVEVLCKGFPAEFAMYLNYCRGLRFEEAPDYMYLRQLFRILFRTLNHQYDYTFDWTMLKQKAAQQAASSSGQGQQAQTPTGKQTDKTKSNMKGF
T5 sequence (Q96SW2 whole entry): as the sequence (Q96SW2 whole entry) above
T5 sequence (Q16531 whole entry partner): as the sequence (Q16531 whole entry partner) above

GSPT1 = target: T6, GSPT1 (Homo sapiens, UniProt P15170+Q96SW2); experiment: Western-blot assay of substrate protein degradation in hPBMCs, GSPT1; type: cell-based; conditions: 24 hours of compound treatment
T6 construct: endogenous in cells; host or cells: hPBMCs (Milecell Biotechnologies)
T6 sequence (P15170 whole entry): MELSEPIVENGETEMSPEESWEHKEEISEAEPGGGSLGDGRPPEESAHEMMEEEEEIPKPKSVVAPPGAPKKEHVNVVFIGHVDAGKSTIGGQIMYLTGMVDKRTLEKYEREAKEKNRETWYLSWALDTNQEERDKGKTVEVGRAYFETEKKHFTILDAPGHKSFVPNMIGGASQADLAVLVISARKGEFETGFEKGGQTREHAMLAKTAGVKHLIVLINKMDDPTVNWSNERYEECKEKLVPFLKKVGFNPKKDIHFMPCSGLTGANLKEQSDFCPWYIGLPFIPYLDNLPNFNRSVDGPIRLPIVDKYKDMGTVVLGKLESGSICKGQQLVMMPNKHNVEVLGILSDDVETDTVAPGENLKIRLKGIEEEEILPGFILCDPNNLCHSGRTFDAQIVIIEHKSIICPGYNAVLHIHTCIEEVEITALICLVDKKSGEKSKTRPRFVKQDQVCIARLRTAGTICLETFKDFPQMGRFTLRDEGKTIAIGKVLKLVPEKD
T6 sequence (Q96SW2 whole entry): as the sequence (Q96SW2 whole entry) above
T6 sequence (Q16531 whole entry partner): as the sequence (Q16531 whole entry partner) above

[1] = target: T7, human Cereblon WT GST-tagged protein (Homo sapiens, UniProt Q96SW2); experiment: CRBN-binding affinity by HTRF (CEREBLON BINDING kit); conditions: HTRF inhibitory activity, CEREBLON BINDING kit; read-out: HTRF IC50
T7 construct: purchased CISBIO 64BDCRBNPEH
T7 sequence (Q96SW2 whole entry): as the sequence (Q96SW2 whole entry) above

[2] = compounds tested at 50 nM and 500 nM (concentration of the table not stated)
[3] = 50 nM and 500 nM tested (concentration behind the class not stated)

IC50 [1] [nM] | Structure (SMILES) | Weel substrate protein remaining % (WEE1; [2]) | IKZF 1 substrate protein remaining % (IKZF1; [2]) | IKZF2 substrate protein remaining % (IKZF2; [2]) | IKZF3 substrate protein remaining % (IKZF3; [2]) | CK1a substrate protein remaining % (CK1α; [2]) | GSPT1 substrate protein remaining % (GSPT1; [2]) | Weel substrate protein remaining % (WEE1; [3]) | IKZF 1 substrate protein remaining % (IKZF1; [3]) | IKZF2 substrate protein remaining % (IKZF2; [3]) | IKZF3 substrate protein remaining % (IKZF3; [3]) | CK1a substrate protein remaining % (CK1α; [3]) | GSPT1 substrate protein remaining % (GSPT1; [3])
< 500 | O=C1CCC(N2Cc3cc(CN4CCN(c5noc6ccncc56)CC4)ccc3C2=O)C(=O)N1 (stereo not drawn) [GT-04904, 3-(5-((4-(isoxazolo[4,5-c]pyridin-3-yl)piperazin-1-yl)methyl)-1-oxoisoindolin-2-yl)piperidine-2,6-dione] | B (80%< substrate protein remaining %≤ 100%) | A (0% ≤ substrate protein remaining % ≤ 80%) | B (80%< substrate protein remaining %≤ 100%) | B (80%< substrate protein remaining %≤ 100%) | B (80%< substrate protein remaining %≤ 100%) | B (80%< substrate protein remaining %≤ 100%) |  |  |  |  |  | 
500 to 1000 | O=C1CCC(N2Cc3cc(CN4CCN(c5cc(Cl)nnc5Cl)CC4)ccc3C2=O)C(=O)N1 (stereo not drawn) [GT-04500, 3-(5-((4-(3,6-dichloropyridazin-4-yl)piperazin-1-yl)methyl)-1-oxoisoindolin-2-yl)piperidine-2,6-dione] | A (0% ≤ substrate protein remaining % ≤ 80%) | A (0% ≤ substrate protein remaining % ≤ 80%) | A (0% ≤ substrate protein remaining % ≤ 80%) | A (0% ≤ substrate protein remaining % ≤ 80%) | A (0% ≤ substrate protein remaining % ≤ 80%) | A (0% ≤ substrate protein remaining % ≤ 80%) |  |  |  |  |  | 
500 to 1000 | Cc1sc2ncnc(N3CCN(Cc4ccc5c(c4)CN(C4CCC(=O)NC4=O)C5=O)CC3)c2c1C (stereo not drawn) [GT-04706, 3-(5-((4-(5,6-dimethylthieno[2,3-d]pyrimidin-4-yl)piperazin-1-yl)methyl)-1-oxoisoindolin-2-yl)piperidine-2,6-dione] | B (80%< substrate protein remaining %≤ 100%) | A (0% ≤ substrate protein remaining % ≤ 80%) | A (0% ≤ substrate protein remaining % ≤ 80%) | A (0% ≤ substrate protein remaining % ≤ 80%) | A (0% ≤ substrate protein remaining % ≤ 80%) | A (0% ≤ substrate protein remaining % ≤ 80%) |  |  |  |  |  | 
500 to 1000 | Cc1cc2c(C3CCN(Cc4ccc5c(c4)CN(C4CCC(=O)NC4=O)C5=O)CC3)ncnc2s1 (stereo not drawn) [GT-04717, 3-(5-((4-(6-methylthieno[2,3-d]pyrimidin-4-yl)piperidin-1-yl)methyl)-1-oxoisoindolin-2-yl)piperidine-2,6-dione] | B (80%< substrate protein remaining %≤ 100%) | B (80%< substrate protein remaining %≤ 100%) | A (0% ≤ substrate protein remaining % ≤ 80%) | A (0% ≤ substrate protein remaining % ≤ 80%) | B (80%< substrate protein remaining %≤ 100%) | A (0% ≤ substrate protein remaining % ≤ 80%) |  |  |  |  |  | 
500 to 1000 | O=C1CCC(N2C(=O)c3ccc(CN4CC=C(c5ncnc6sccc56)CC4)cc3C2=O)C(=O)N1 (stereo not drawn) [GT-06653, 2-(2,6-dioxopiperidin-3-yl)-5-((4-(thieno[2,3-d]pyrimidin-4-yl)-3,6-dihydropyridin-1(2H)-yl)methyl)isoindoline-1,3-dione] |  |  |  |  |  |  | A (0% ≤ substrate protein remaining % ≤ 80%) | A (0% ≤ substrate protein remaining % ≤ 80%) | B (80%< substrate protein remaining %≤ 100%) | A (0% ≤ substrate protein remaining % ≤ 80%) | B (80%< substrate protein remaining %≤ 100%) | A (0% ≤ substrate protein remaining % ≤ 80%)
500 to 1000 | O=C1CCC(N2Cc3cc(CN4CCN(c5nccc(I)c5F)CC4)ccc3C2=O)C(=O)N1 (stereo not drawn) [GT-04557, 3-(5-((4-(3-fluoro-4-iodopyridin-2-yl)piperazin-1-yl)methyl)-1-oxoisoindolin-2-yl)piperidine-2,6-dione] | A (0% ≤ substrate protein remaining % ≤ 80%) | A (0% ≤ substrate protein remaining % ≤ 80%) | A (0% ≤ substrate protein remaining % ≤ 80%) | A (0% ≤ substrate protein remaining % ≤ 80%) | A (0% ≤ substrate protein remaining % ≤ 80%) | A (0% ≤ substrate protein remaining % ≤ 80%) |  |  |  |  |  | 
500 to 1000 | O=C1CCC(N2Cc3cc(CN4CCN(c5ccc(Cl)nn5)CC4)ccc3C2=O)C(=O)N1 (stereo not drawn) [GT-04482, 3-(5-((4-(6-chloropyridazin-3-yl)piperazin-1-yl)methyl)-1-oxoisoindolin-2-yl)piperidine-2,6-dione] | A (0% ≤ substrate protein remaining % ≤ 80%) | B (80%< substrate protein remaining %≤ 100%) | A (0% ≤ substrate protein remaining % ≤ 80%) | B (80%< substrate protein remaining %≤ 100%) | A (0% ≤ substrate protein remaining % ≤ 80%) | A (0% ≤ substrate protein remaining % ≤ 80%) |  |  |  |  |  | 
1000 to 1500 | O=C1CCC(N2Cc3cc(CN4CCN(c5ccc(Cl)cc5Cl)CC4)ccc3C2=O)C(=O)N1 (stereo not drawn) [GT-04464, 3-(5-((4-(2,4-dichlorophenyl)piperazin-1-yl)methyl)-1-oxoisoindolin-2-yl)piperidine-2,6-dione] | B (80%< substrate protein remaining %≤ 100%) | B (80%< substrate protein remaining %≤ 100%) | A (0% ≤ substrate protein remaining % ≤ 80%) | B (80%< substrate protein remaining %≤ 100%) | B (80%< substrate protein remaining %≤ 100%) | A (0% ≤ substrate protein remaining % ≤ 80%) |  |  |  |  |  | 
< 500 | O=C1CCC(N2Cc3cc(CN4CCC(c5ncnc6sc7c(c56)CCC7)CC4)ccc3C2=O)C(=O)N1 (stereo not drawn) [GT-04994, 3-(5-((4-(6,7-dihydro-5H-cyclopenta[4,5]thieno[2,3-d]pyrimidin-4-yl)piperidin-1-yl)methyl)-1-oxoisoindolin-2-yl)piperidine-2,6-dione] | A (0% ≤ substrate protein remaining % ≤ 80%) | A (0% ≤ substrate protein remaining % ≤ 80%) | A (0% ≤ substrate protein remaining % ≤ 80%) | A (0% ≤ substrate protein remaining % ≤ 80%) | B (80%< substrate protein remaining %≤ 100%) | B (80%< substrate protein remaining %≤ 100%) |  |  |  |  |  | 
< 500 | O=C1CCC(N2Cc3cc(CN4CCC(c5ncnc6sc7c(c56)CCCC7)CC4)ccc3C2=O)C(=O)N1 (stereo not drawn) [GT-05265, 3-(1-oxo-5-((4-(5,6,7,8-tetrahydrobenzo[4,5]thieno[2,3-d]pyrimidin-4-yl)piperidin-1-yl)methyl)isoindolin-2-yl)piperidine-2,6-dione] | B (80%< substrate protein remaining %≤ 100%) | A (0% ≤ substrate protein remaining % ≤ 80%) | A (0% ≤ substrate protein remaining % ≤ 80%) | A (0% ≤ substrate protein remaining % ≤ 80%) | A (0% ≤ substrate protein remaining % ≤ 80%) | A (0% ≤ substrate protein remaining % ≤ 80%) |  |  |  |  |  | 
500 to 1000 | O=C1CCC(N2Cc3cc(CN4CCC(c5ncc6ccsc6n5)CC4)ccc3C2=O)C(=O)N1 (stereo not drawn) [GT-04933, 3-(1-oxo-5-((4-(thieno[2,3-d]pyrimidin-2-yl)piperidin-1-yl)methyl)isoindolin-2-yl)piperidine-2,6-dione] | A (0% ≤ substrate protein remaining % ≤ 80%) | A (0% ≤ substrate protein remaining % ≤ 80%) | A (0% ≤ substrate protein remaining % ≤ 80%) | A (0% ≤ substrate protein remaining % ≤ 80%) | A (0% ≤ substrate protein remaining % ≤ 80%) | A (0% ≤ substrate protein remaining % ≤ 80%) |  |  |  |  |  | 

Structure (SMILES) | IC50 [1] [nM] | Weel substrate protein remaining % (WEE1; [2]) | IKZF 1 substrate protein remaining % (IKZF1; [2]) | IKZF2 substrate protein remaining % (IKZF2; [2]) | IKZF3 substrate protein remaining % (IKZF3; [2]) | CK1a substrate protein remaining % (CK1α; [2]) | GSPT1 substrate protein remaining % (GSPT1; [2]) | Weel substrate protein remaining % (WEE1; [3]) | IKZF 1 substrate protein remaining % (IKZF1; [3]) | IKZF2 substrate protein remaining % (IKZF2; [3]) | IKZF3 substrate protein remaining % (IKZF3; [3]) | CK1a substrate protein remaining % (CK1α; [3]) | GSPT1 substrate protein remaining % (GSPT1; [3])
O=C1CCC(N2Cc3cc(CN4CCC(n5c(=O)[nH]c6cc(F)ccc65)CC4)ccc3C2=O)C(=O)N1 (stereo not drawn) [GT-04714, 3-(5-((4-(5-fluoro-2-oxo-2,3-dihydro-1H-benzo[d]imidazol-1-yl)piperidin-1-yl)methyl)-1-oxoisoindolin-2-yl)piperidine-2,6-dione] | 500 to 1000 | A (0% ≤ substrate protein remaining % ≤ 80%) | A (0% ≤ substrate protein remaining % ≤ 80%) | A (0% ≤ substrate protein remaining % ≤ 80%) | A (0% ≤ substrate protein remaining % ≤ 80%) | A (0% ≤ substrate protein remaining % ≤ 80%) | A (0% ≤ substrate protein remaining % ≤ 80%) |  |  |  |  |  | 

Reference: patent publication EP4745137A1 (Gluetacs Therapeutics (Shanghai) Co., Ltd., priority 2023, dated 2025)
